Data as given in ChEMBL document CHEMBL1649172, “Novel imino sugar derivatives demonstrate potent antiviral activity against flaviviruses” (Antimicrob Agents Chemother, 2009).
pEC50: −log10 of the molar value. Calls of active or inactive are those of the source. The rule behind the calls is not given here.

What was measured:
[1] = Antiviral activity against 1 MOI Bovine viral diarrhea virus NADL infected in MDBK cells assessed as reduction in viral titer after 72 hrs by plaque forming assay; type: functional, cell-based, Bovine viral diarrhea virus 1-NADL; settings: Bovine viral diarrhea virus isolates and strains
[2] = Selectivity index, ratio of CC50 for bovine MDBK cells to EC50 for 1 MOI Bovine viral diarrhea virus infected in bovine MDBK cells; type: toxicity, cell-based; settings: cattle; read-out: Ratio CC50/EC50
[3] = Cytotoxicity against BHK cells by MTT assay; type: cell-based, Mesocricetus auratus; settings: hamster
[4] = Cytotoxicity against african green monkey Vero cells by MTT assay; type: cell-based; settings: chlorocebus sabaeus
[5] = Cytotoxicity against MDBK cells by MTT assay; type: cell-based, Bos taurus; settings: cattle
Dengue virus [6] = assay: Antiviral activity against Dengue virus C infected in african green monkey Vero cells assessed as reduction in viral titer after 72 hrs by plaque reduction assay; type: functional, organism-based
West Nile virus = assay: Antiviral activity against West Nile virus infected in baby hamster kidney cells assessed as reduction in viral titer after 72 hrs by plaque reduction assay; type: functional, organism-based
[7] = Antiviral activity against 1 MOI Bovine viral diarrhea virus NADL infected in bovine MDBK cells assessed as reduction in viral titer at 80 uM after 24 hrs by RT-PCR; type: functional, Bovine viral diarrhea virus 1-NADL; settings: Bovine viral diarrhea virus isolates and strains
[8] = Antiviral activity against 1 MOI Bovine viral diarrhea virus NADL infected in bovine MDBK cells assessed as inhibition of extracellular viral RNA production at 80 uM after 24 hrs by RT-PCR; type: functional, Bovine viral diarrhea virus 1-NADL; settings: Bovine viral diarrhea virus isolates and strains
[9] = Antiviral activity against 1 MOI Bovine viral diarrhea virus NADL infected in bovine MDBK cells assessed as inhibition of extracellular viral RNA production at 100 uM after 24 hrs by RT-PCR; type: functional, Bovine viral diarrhea virus 1-NADL; settings: Bovine viral diarrhea virus isolates and strains
[10] = system: Bovine viral diarrhea virus 1-NADL; assay: Inhibition of […] assessed as reduced E2 protein mobility after 24 hrs by Western blotting
[11] = Antiviral activity against 1 MOI Bovine viral diarrhea virus NADL infected in bovine MDBK cells assessed as inhibition of viral RNA replication at 100 uM after 24 hrs by RT-PCR; type: functional, Bovine viral diarrhea virus 1-NADL; settings: Bovine viral diarrhea virus isolates and strains
MDBK [12] = assay: Antiviral activity against 1 MOI Bovine viral diarrhea virus NADL infected in bovine MDBK cells assessed as inhibition of viral RNA replication at 100 uM after 6 hrs by RT-PCR; type: functional, cell-based; settings: Bovine viral diarrhea virus 1-NADL
MDBK [13] = assay: Antiviral activity against 1 MOI Bovine viral diarrhea virus NADL infected in bovine MDBK cells assessed as inhibition of viral RNA replication at 80 uM after 12 hrs by RT-PCR; type: functional, cell-based; settings: Bovine viral diarrhea virus 1-NADL
[14] = Antiviral activity against 1 MOI Bovine viral diarrhea virus NADL infected in bovine MDBK cells assessed as inhibition of intracellular viral RNA production at 80 uM after 24 hrs by RT-PCR; type: functional, Bovine viral diarrhea virus 1-NADL; settings: Bovine viral diarrhea virus isolates and strains
MDBK [15] = assay: Antiviral activity against 1 MOI Bovine viral diarrhea virus NADL infected in bovine MDBK cells assessed as inhibition of viral RNA replication at 80 uM after 6 hrs by RT-PCR; type: functional, cell-based; settings: Bovine viral diarrhea virus 1-NADL
MDBK [16] = assay: Antiviral activity against 1 MOI Bovine viral diarrhea virus NADL infected in bovine MDBK cells assessed as inhibition of viral RNA replication at 100 uM after 12 hrs by RT-PCR; type: functional, cell-based; settings: Bovine viral diarrhea virus 1-NADL
[17] = Antiviral activity against 1 MOI Bovine viral diarrhea virus NADL infected in bovine MDBK cells assessed as inhibition of intracellular viral RNA production at 100 uM after 24 hrs by RT-PCR; type: functional, Bovine viral diarrhea virus 1-NADL; settings: Bovine viral diarrhea virus isolates and strains
[18] = Antiviral activity against 1 MOI Bovine viral diarrhea virus NADL infected in bovine MDBK cells assessed as reduction in viral titer at 100 uM after 24 hrs by RT-PCR; type: functional, Bovine viral diarrhea virus 1-NADL; settings: Bovine viral diarrhea virus isolates and strains
[19] = (§1) Antiviral activity against 1 MOI Bovine viral diarrhea virus NADL infected in bovine MDBK cells assessed as inhibition of viral RNA replication at 80 uM after 24 hrs by RT-PCR; type: functional, Bovine viral diarrhea virus 1-NADL; settings: Bovine viral diarrhea virus isolates and strains
MDBK [20] = assay: as §1; type: functional; settings: Bovine viral diarrhea virus 1-NADL
[21] = system: Bovine viral diarrhea virus 1; assay: Antiviral activity against Bovine viral diarrhea virus 1; type: functional, organism-based; settings: Bovine viral diarrhea virus isolates and strains
Dengue virus [22] = assay: Antiviral activity against Dengue virus; type: functional, organism-based

SMILES	pEC50 [1]	EC90 [1]	selectivity ratio [2]	CC50 [3]	CC50 [4]	CC50 [5]	pEC50 (Dengue virus [6])	EC90 (Dengue virus [6])	pEC50 (West Nile virus)	further results
CCCCCCCCCN1C[C@H](O)[C@@H](O)[C@H](O)[C@H]1CO	5.14	71 µM	33	20 µM	> 40 µM	245 µM	5.96	3.3 µM	5.40	–
CCCC(O)(CCC)CCCCCN1C[C@H](O)[C@@H](O)[C@H](O)[C@H]1CO	5.02	> 100 µM	> 53	–	–	> 500 µM	–	–	–	–
OC[C@@H]1[C@@H](O)[C@H](O)[C@@H](O)CN1CCCCCC1(O)CCCCC1	4.98	> 100 µM	> 48	> 100 µM	> 40 µM	> 500 µM	5.40	8.7 µM	5.35	inhibition at 80 µM [7]: 89%; inhibition at 80 µM [8]: 73%; inhibition at 100 µM [9]: 73%; inhibition [10]: Dose-dependent effect; inhibition at 100 µM [11]: 40%; inhibition (MDBK [12]): inactive; inhibition (MDBK [13]): inactive; inhibition at 80 µM [14]: 40%; inhibition (MDBK [15]): inactive; inhibition (MDBK [16]): inactive; inhibition at 100 µM [17]: 40%; inhibition at 100 µM [18]: 89%; inhibition at 80 µM [19]: 40%
OC[C@@H]1[C@@H](O)[C@H](O)[C@@H](O)CN1CCCCCCOC1CC2CCC1C2 (stereo partly specified)	5.35	47 µM	> 111	–	–	> 500 µM	–	–	–	–
OC[C@@H]1[C@@H](O)[C@H](O)[C@@H](O)CN1CCCCCCC1(O)CCCCC1	4.74	82.5 µM	> 28	–	–	> 500 µM	–	–	–	–
CCC(O)(CC)CCCCCN1C[C@H](O)[C@@H](O)[C@H](O)[C@H]1CO	4.66	> 100 µM	> 23	–	–	> 500 µM	–	–	–	–
CC(C)[C@@H]1CC[C@@H](C)CC1OCCCCCCN1C[C@H](O)[C@@H](O)[C@H](O)[C@H]1CO (stereo partly specified)	5.80	14.8 µM	146	70 µM	80 µM	235 µM	7.00	0.2 µM	5.32	EC90 (West Nile virus): 19 µM
C[C@@H]1CCCCC1OCCCCCCN1C[C@H](O)[C@@H](O)[C@H](O)[C@H]1CO (stereo partly specified)	5.48	14.3 µM	> 151	70 µM	65 µM	> 500 µM	7.12	0.6 µM	5.46	EC90 (West Nile virus): 33 µM
CC1CCC(OCCCCCCN2C[C@H](O)[C@@H](O)[C@H](O)[C@H]2CO)CC1 (stereo partly specified)	5.15	53 µM	> 70	–	> 40 µM	> 500 µM	5.17	13 µM	–	inhibition at 80 µM [7]: 89%; inhibition at 80 µM [8]: 73%; inhibition at 100 µM [9]: 73%; inhibition at 100 µM [11]: 40%; inhibition (MDBK [13]): inactive; inhibition at 80 µM [14]: 40%; inhibition (MDBK [16]): inactive; inhibition at 100 µM [17]: 40%; inhibition at 100 µM [18]: 89%; inhibition at 80 µM [19]: 40%; inhibition (MDBK [20]): Active
OC[C@@H]1[C@@H](O)[C@H](O)[C@@H](O)CN1CCCCCOCC1CC2CCC1C2 (stereo partly specified)	5.54	22 µM	> 172	–	–	> 500 µM	–	–	–	–
Cc1ccc(C)c(OCCCCCCN2C[C@H](O)[C@@H](O)[C@H](O)[C@H]2CO)c1	5.52	24.9 µM	162	75 µM	85 µM	485 µM	7.00	0.6 µM	5.82	EC90 (West Nile virus): 20 µM
CCCCN1C[C@H](O)[C@@H](O)[C@H](O)[C@H]1CO [MIGLUSTAT]	–	–	–	–	–	–	–	–	–	pEC50 [21]: 4.00; pEC50 (Dengue virus [22]): 4.00
